Results from patent US9840513B2 (AbbVie S.à.r.l., priority 2015, dated 2017).

Biological target: T1, F508delCFTR cell surface expression in CFBE41o-F508delCFTR-HRP cells (Homo sapiens, UniProt P13569, DEL508-508)
T1 construct: fused on or other part: Horseradish peroxidase (HRP) reporter inserted in the fourth exofacial (extracellular) loop of CFTR; expression is doxycycline-inducible
Test: Cell Surface Expression-Horse Radish Peroxidase (CSE-HRP) Assay
Assay type: cell-based
Conditions: for EC50: CFBE41o-F508delCFTR-HRP cells, 18-24 hours at 33° C., 8-point curve, highest concentration 20 μM; for Maximum % activity (%): maximum at any tested concentration, normalized to on-plate positive control (3 μM)
In short: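 Correctors incubated 18-24 h at 33 °C on doxycycline-induced (0.5 μg/mL, 72 h) CFBE41o-F508delCFTR-HRP cells, 3-fold series from 20 μM. After DPBS washes, luminol luminescence read; activity expressed relative to DMSO and a 3 μM positive control, EC50 fitted from triplicate plates.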

T1 sequence (P13569 with tags, fused parts or gaps DEL508-508 limits assumed): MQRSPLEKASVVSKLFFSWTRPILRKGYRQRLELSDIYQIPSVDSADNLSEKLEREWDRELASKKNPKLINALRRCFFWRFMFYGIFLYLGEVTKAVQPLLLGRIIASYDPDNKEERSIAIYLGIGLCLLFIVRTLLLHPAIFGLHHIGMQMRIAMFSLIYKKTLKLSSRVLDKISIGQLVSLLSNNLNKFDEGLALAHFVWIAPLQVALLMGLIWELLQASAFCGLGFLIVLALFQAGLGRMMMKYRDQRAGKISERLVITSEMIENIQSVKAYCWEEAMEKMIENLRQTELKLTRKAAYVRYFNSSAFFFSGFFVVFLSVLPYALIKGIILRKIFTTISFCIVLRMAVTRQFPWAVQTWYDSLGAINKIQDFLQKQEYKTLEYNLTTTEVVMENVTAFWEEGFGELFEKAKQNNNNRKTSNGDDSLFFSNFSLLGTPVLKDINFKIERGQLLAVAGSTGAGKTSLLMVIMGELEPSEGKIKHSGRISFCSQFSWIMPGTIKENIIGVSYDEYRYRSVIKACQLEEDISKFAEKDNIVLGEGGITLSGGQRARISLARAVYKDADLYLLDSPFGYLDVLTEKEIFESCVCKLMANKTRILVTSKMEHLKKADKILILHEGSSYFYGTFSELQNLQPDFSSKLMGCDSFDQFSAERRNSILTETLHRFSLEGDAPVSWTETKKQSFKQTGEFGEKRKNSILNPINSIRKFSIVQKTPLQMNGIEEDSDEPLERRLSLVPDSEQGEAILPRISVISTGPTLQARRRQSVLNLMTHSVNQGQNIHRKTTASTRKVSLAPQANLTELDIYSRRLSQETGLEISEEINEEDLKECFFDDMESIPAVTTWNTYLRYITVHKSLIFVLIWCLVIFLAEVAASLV
T1 sequence (P13569 919-1480 limits assumed, stated change not applied): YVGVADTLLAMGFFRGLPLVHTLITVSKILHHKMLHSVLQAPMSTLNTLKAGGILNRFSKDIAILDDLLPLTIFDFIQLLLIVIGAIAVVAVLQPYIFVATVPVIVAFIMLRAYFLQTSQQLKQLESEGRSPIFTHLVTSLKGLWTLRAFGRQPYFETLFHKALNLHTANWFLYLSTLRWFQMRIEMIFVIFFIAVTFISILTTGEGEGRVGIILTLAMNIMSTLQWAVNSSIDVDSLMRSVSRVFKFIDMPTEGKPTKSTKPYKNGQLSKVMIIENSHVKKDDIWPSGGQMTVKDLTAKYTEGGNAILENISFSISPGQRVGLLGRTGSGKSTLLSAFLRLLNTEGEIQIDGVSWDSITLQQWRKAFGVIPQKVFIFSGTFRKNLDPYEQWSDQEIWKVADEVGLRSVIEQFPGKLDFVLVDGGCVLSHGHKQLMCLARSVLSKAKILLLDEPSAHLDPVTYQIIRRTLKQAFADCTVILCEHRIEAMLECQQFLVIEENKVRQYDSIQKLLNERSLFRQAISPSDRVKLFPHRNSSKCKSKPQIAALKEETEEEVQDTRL

Compound | EC50 | Maximum % activity (%)
CC(C)OC(=O)[C@H]1CC[C@H]([C@H]2C[C@@H](NC(=O)[C@@]3(C)COc4cc5c(cc43)OC(F)(F)O5)c3ccc(OC(F)(F)F)cc3O2)CC1 [Example 194, propan-2-yl trans-4-[(2R,4R)-4-{[(7R)-2,2-difluoro-7-methyl-6,7-dihydro-2H-furo[2,3-f][1,3]benzodioxole-7-carbonyl]amino}-7-(trifluoromethoxy)-3,4-dihydro-2H-1-benzopyran-2-yl]cyclohexane-1-carboxylate] | 60 nM | 143%
COc1ccc2c(c1)O[C@@H](c1ccc(Cl)nn1)C[C@H]2NC(=O)[C@@]1(C)COc2cc3c(cc21)OC(F)(F)O3 [Example 195, (7R)—N-[(2R,4R)-2-(6-chloropyridazin-3-yl)-7-methoxy-3,4-dihydro-2H-1-benzopyran-4-yl]-2,2-difluoro-7-methyl-6,7-dihydro-2H-furo[2,3-f][1,3]benzodioxole-7-carboxamide] | 340 nM | 101%
COc1ccc2c(c1)OC(c1ccc(=O)n(C[C@@H](O)CO)n1)C[C@H]2NC(=O)[C@@]1(C)COc2cc3c(cc21)OC(F)(F)O3 (stereo partly drawn) [Example 196, (7R)—N-[(4R)-2-{1-[(2R)-2,3-dihydroxypropyl]-6-oxo-1,6-dihydropyridazin-3-yl}-7-methoxy-3,4-dihydro-2H-1-benzopyran-4-yl]-2,2-difluoro-7-methyl-6,7-dihydro-2H-furo[2,3-f][1,3]benzodioxole-7-carboxamide] | 400 nM | 105%
CC(C)(C)OC(=O)N[C@H]1CC[C@H]([C@@H]2C[C@H](NC(=O)[C@@]3(C)COc4cc5c(cc43)OC(F)(F)O5)c3ccc(OC(F)F)cc3O2)CC1 [Example 198, tert-butyl {trans-4-[(2S,4S)-7-(difluoromethoxy)-4-{[(7R)-2,2-difluoro-7-methyl-6,7-dihydro-2H-furo[2,3-f][1,3]benzodioxole-7-carbonyl]amino}-3,4-dihydro-2H-1-benzopyran-2-yl]cyclohexyl}carbamate] | 1070 nM | 106%
CC(C)(C)OC(=O)N[C@H]1CC[C@H]([C@H]2C[C@@H](NC(=O)[C@@]3(C)COc4cc5c(cc43)OC(F)(F)O5)c3ccc(OC(F)F)cc3O2)CC1 [Example 199, tert-butyl {trans-4-[(2R,4R)-7-(difluoromethoxy)-4-{[(7R)-2,2-difluoro-7-methyl-6,7-dihydro-2H-furo[2,3-f][1,3]benzodioxole-7-carbonyl]amino}-3,4-dihydro-2H-1-benzopyran-2-yl]cyclohexyl}carbamate] | 210 nM | 149%
COc1ccc2c(c1)O[C@H](c1ccc(=O)[nH]n1)C[C@H]2NC(=O)[C@@]1(C)COc2cc3c(cc21)OC(F)(F)O3 [Example 200, (7R)-2,2-difluoro-N-[(2S,4R)-7-methoxy-2-(6-oxo-1,6-dihydropyridazin-3-yl)-3,4-dihydro-2H-1-benzopyran-4-yl]-7-methyl-6,7-dihydro-2H-furo[2,3-f][1,3]benzodioxole-7-carboxamide] | 70 nM | 132%
C[C@]1(C(=O)N[C@H]2C[C@@H](C3(C(=O)O)CC3)Oc3cc(OC(F)(F)F)ccc32)COc2cc3c(cc21)OC(F)(F)O3 [Example 201, 1-[(2S,4S)-4-{[(7R)-2,2-difluoro-7-methyl-6,7-dihydro-2H-furo[2,3-f][1,3]benzodioxole-7-carbonyl]amino}-7-(trifluoromethoxy)-3,4-dihydro-2H-1-benzopyran-2-yl]cyclopropane-1-carboxylic acid] | 1610 nM | 71%
COc1ccc2c(c1)O[C@@H](c1nnn[nH]1)C[C@H]2NC(=O)[C@@]1(C)COc2cc3c(cc21)OC(F)(F)O3 [Example 202, (7R)-2,2-difluoro-N-[(2R,4R)-7-methoxy-2-(1H-tetrazol-5-yl)-3,4-dihydro-2H-1-benzopyran-4-yl]-7-methyl-6,7-dihydro-2H-furo[2,3-f][1,3]benzodioxole-7-carboxamide] | > 20000 nM | 8%
C[C@]1(C(=O)Nc2cc3cc(C4(COCc5ccccc5)CC4)n(C[C@@H](O)CO)c3cc2F)COc2cc3c(cc21)OC(F)(F)O3 [Example 203, (7R)—N-(2-{1-[(benzyloxy)methyl]cyclopropyl}-1-[(2R)-2,3-dihydroxypropyl]-6-fluoro-1H-indol-5-yl)-2,2-difluoro-7-methyl-6,7-dihydro-2H-furo[2,3-f][1,3]benzodioxole-7-carboxamide] | 660 nM | 125%
CC(C)(COCc1ccccc1)c1cc2cc(NC(=O)[C@@]3(C)COc4cc5c(cc43)OC(F)(F)O5)c(F)cc2[nH]1 [Example 204, (7R)—N-{2-[1-(benzyloxy)-2-methylpropan-2-yl]-6-fluoro-1H-indol-5-yl}-2,2-difluoro-7-methyl-6,7-dihydro-2H-furo[2,3-f][1,3]benzodioxole-7-carboxamide] | 310 nM | 134%
CC(C)(COCc1ccccc1)c1cc2cc(NC(=O)[C@]3(C)COc4cc5c(cc43)OC(F)(F)O5)c(F)cc2n1C[C@@H](O)COCc1ccccc1 [Example 205, (7S)—N-{1-[(2R)-3-(benzyloxy)-2-hydroxypropyl]-2-[1-(benzyloxy)-2-methylpropan-2-yl]-6-fluoro-1H-indol-5-yl}-2,2-difluoro-7-methyl-6,7-dihydro-2H-furo[2,3-f][1,3]benzodioxole-7-carboxamide] | > 20000 nM | 18%
CC1(C)OC[C@@H](Cn2c3c(c4cc(NC(=O)[C@@]5(C)COc6cc7c(cc65)OC(F)(F)O7)c(F)cc42)C(C)(C)OCC3(C)C)O1 [Example 207, (7R)—N-(5-{[(4R)-2,2-dimethyl-1,3-dioxolan-4-yl]methyl}-7-fluoro-1,1,4,4-tetramethyl-1,3,4,5-tetrahydropyrano[4,3-b]indol-8-yl)-2,2-difluoro-7-methyl-6,7-dihydro-2H-furo[2,3-f][1,3]benzodioxole-7-carboxamide] | 350 nM | 69%
COc1ccc2c(c1)O[C@@H](c1ccc(C(=O)Nc3ccccc3O)cn1)C[C@H]2NC(=O)[C@@]1(C)COc2cc3c(cc21)OC(F)(F)O3 [Example 208, 6-[(2R,4R)-4-{[(7R)-2,2-difluoro-7-methyl-6,7-dihydro-2H-furo[2,3-f][1,3]benzodioxole-7-carbonyl]amino}-7-methoxy-3,4-dihydro-2H-1-benzopyran-2-yl]-N-(2-hydroxyphenyl)pyridine-3-carboxamide] | 10 nM | 103%
CCCN(CCO)C(=O)c1ccc([C@H]2C[C@@H](NC(=O)[C@@]3(C)COc4cc5c(cc43)OC(F)(F)O5)c3ccc(OC)cc3O2)nc1 [Example 209, 6-[(2R,4R)-4-{[(7R)-2,2-difluoro-7-methyl-6,7-dihydro-2H-furo[2,3-f][1,3]benzodioxole-7-carbonyl]amino}-7-methoxy-3,4-dihydro-2H-1-benzopyran-2-yl]-N-(2-hydroxyethyl)-N-propylpyridine-3-carboxamide] | 30 nM | 122%
COc1ccc2c(c1)O[C@@H](c1ccc(C(=O)N(CCO)Cc3ccccc3)cn1)C[C@H]2NC(=O)[C@@]1(C)COc2cc3c(cc21)OC(F)(F)O3 [Example 210, N-benzyl-6-[(2R,4R)-4-{[(7R)-2,2-difluoro-7-methyl-6,7-dihydro-2H-furo[2,3-f][1,3]benzodioxole-7-carbonyl]amino}-7-methoxy-3,4-dihydro-2H-1-benzopyran-2-yl]-N-(2-hydroxyethyl)pyridine-3-carboxamide] | 30 nM | 147%
COc1ccc2c(c1)O[C@@H](c1ccc(C(=O)N(C)CC(O)c3ccccc3)cn1)C[C@H]2NC(=O)[C@@]1(C)COc2cc3c(cc21)OC(F)(F)O3 (stereo partly drawn) [Example 211, 6-[(2R,4R)-4-{[(7R)-2,2-difluoro-7-methyl-6,7-dihydro-2H-furo[2,3-f][1,3]benzodioxole-7-carbonyl]amino}-7-methoxy-3,4-dihydro-2H-1-benzopyran-2-yl]-N-(2-hydroxy-2-phenylethyl)-N-methylpyridine-3-carboxamide] | 30 nM | 124%
COc1ccc2c(c1)O[C@@H](c1ccc(C(=O)N3CCC(O)CC3)cn1)C[C@H]2NC(=O)[C@@]1(C)COc2cc3c(cc21)OC(F)(F)O3 [Example 212, (7R)-2,2-difluoro-N-{(2R,4R)-2-[5-(4-hydroxypiperidine-1-carbonyl)pyridin-2-yl]-7-methoxy-3,4-dihydro-2H-1-benzopyran-4-yl}-7-methyl-6,7-dihydro-2H-furo[2,3-f][1,3]benzodioxole-7-carboxamide] | 30 nM | 119%
COc1ccc2c(c1)O[C@@H](c1ccc(C(=O)NC(C)(C)CO)cn1)C[C@H]2NC(=O)[C@@]1(C)COc2cc3c(cc21)OC(F)(F)O3 [Example 215, 6-[(2R,4R)-4-{[(7R)-2,2-difluoro-7-methyl-6,7-dihydro-2H-furo[2,3-f][1,3]benzodioxole-7-carbonyl]amino}-7-methoxy-3,4-dihydro-2H-1-benzopyran-2-yl]-N-(1-hydroxy-2-methylpropan-2-yl)pyridine-3-carboxamide] | 30 nM | 113%
COc1ccc2c(c1)O[C@@H](c1ccc(C(=O)NC(CO)c3ccccc3)cn1)C[C@H]2NC(=O)[C@@]1(C)COc2cc3c(cc21)OC(F)(F)O3 (stereo partly drawn) [Example 216, 6-[(2R,4R)-4-{[(7R)-2,2-difluoro-7-methyl-6,7-dihydro-2H-furo[2,3-f][1,3]benzodioxole-7-carbonyl]amino}-7-methoxy-3,4-dihydro-2H-1-benzopyran-2-yl]-N-(2-hydroxy-1-phenylethyl)pyridine-3-carboxamide] | 30 nM | 130%
